Read-outs that look alike come from different tables or passages of the source.
Columns and labels:
[1] = Determination of in vivo pharmacokinetic parameters (blood and brain concentrations); details: male, rat; for Kp: brain and blood, oral dosing 1 mg/kg, read-out: AUC B/B (brain/blood) ratio; for Kp at 0.5 h: brain and heart blood, intravenous, 0.5 mg/kg, 0.5 h after dose administration, read-out: Brain/Heart Blood conc @0.5 hr
Description: Adult male rats (Charles River, Italy) are dosed with test compound orally at 1 mg/kg (5 ml/kg, in 5% v/v DMSO, 0.5% w/v HPMC in water) and intravenously at 0.5 mg/kg (2 ml/kg, in 5% v/v DMSO 40% w/v PEG400 in saline). After oral administration, blood samples are collected under deep Isofluorane anesthesia from the portal vein and heart of each rat (1 rat per time point). After intravenous administration, serial blood samples are collected from the lateral tail vein of each rat. Blood and brain samples are collected at a single timepoint of 0.5 h after dose administration for these animals. In all cases, blood samples are collected into potassium EDTA tubes.
A further group of rats (n=1 per test compound) receive a single intravenous administration of the PgP transport inhibitor, Elacridar (3 mg/kg) shortly before the oral administration of the test compound at 1 mg/kg, as above.
Blood and brain samples can be assayed for test compound concentration using a method based on protein precipitation with acetonitrile followed by HPLC/MS-MS analysis with an optimized analytical method.
The concentrations of test compound in blood (expressed as ng/ml) and brain (expressed as ng/g) at the different time points following either oral or intravenous dosing are analysed using a non-compartmental pharmacokinetic model using WinNonLin Professional version 4.1. The following parameters are derived:
Intravenous dosing: Maximum concentration over time (Cmax), integrated concentration over time (AUC), clearance (Clb), volume of distribution (Vss), half-life (t1/2) and Brain/Heart Blood conc @0.5 hr.
Oral dosing: Cmax, time of maximum concentration (Tmax), AUC, bioavailability (F %), fraction absorbed (Fa %), blood to brain ratio (AUC B/B), and Fold-change in AUC B/B in the presence of Elacridar.

[2] = target: T1, human Kv3.1 channels (hKv3.1) (Homo sapiens, UniProt P48547); experiment: Measurement of Kv3 channel modulation: Kv3.1 assay (IonWorks Quattro whole-cell electrophysiology); format: cell-based; details: for Kv3.1 max R %: normalised to maximum effect of reference compound (50 microM); for EC50: rounded to one decimal place, read-out: Kv3.1 pEC50 (converted)
T1 sequence (P48547 1-501 limits assumed): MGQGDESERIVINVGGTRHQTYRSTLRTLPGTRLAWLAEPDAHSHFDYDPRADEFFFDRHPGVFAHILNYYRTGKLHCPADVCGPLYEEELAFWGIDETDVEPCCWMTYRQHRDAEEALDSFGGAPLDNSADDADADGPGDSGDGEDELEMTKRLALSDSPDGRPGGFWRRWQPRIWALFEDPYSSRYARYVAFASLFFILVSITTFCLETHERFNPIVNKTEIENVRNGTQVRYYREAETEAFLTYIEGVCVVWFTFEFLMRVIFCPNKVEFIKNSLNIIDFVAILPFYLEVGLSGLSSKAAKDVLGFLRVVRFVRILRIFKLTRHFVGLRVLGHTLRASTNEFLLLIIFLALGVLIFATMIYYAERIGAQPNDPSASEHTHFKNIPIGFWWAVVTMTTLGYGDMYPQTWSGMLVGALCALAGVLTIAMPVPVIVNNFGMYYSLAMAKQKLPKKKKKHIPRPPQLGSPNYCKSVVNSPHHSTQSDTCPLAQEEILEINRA
Description: The ability of the compounds of the invention to modulate the voltage-gated potassium channel subtypes Kv3.4/Kv3.3/Kv3.2/Kv3.1 may be determined using the following assay. Analogous methods may be used to investigate the ability of the compounds of the invention to modulate other channel subtypes.
Human embryonic kidney (HEK)-hKv3.1 cell line is generated by transfecting HEK-293 cells with an expression vector with human Kv3.1 (NM_004976.4). Cells are cultured with MEM supplemented with 10% Heat-Inactivated FBS, 2 mM L-glutamine, 1% Penicillin-Streptomycin, and 0.6 mg/ml of Geneticin (G418). HEK-hKv3.1b cells were amplified in T175 cm2 flask at 37° C. with 5% CO2, using MEM amplification medium, containing the G418 selection antibiotic (0.6 mg/ml). Cells were detached every 3-4 days, using DPBS to wash twice the flask, then TrypLE to dislodge the cells, and re-plated at a density of 2-4×10^6 cells/flask.
The day of the experiment, cells are removed from the incubator and the culture medium removed. Cells are washed with 5 ml of Dulbecco's PBS (DPBS) calcium and magnesium free and detached by the addition of 3 ml Versene (Invitrogen, Italy) followed by a brief incubation at 37° C. for 5 minutes. The flask is tapped to dislodge cells and 10 ml of DPBS containing calcium and magnesium is added to prepare a cell suspension. The cell suspension is then placed into a 15 ml centrifuge tube and centrifuged for 2 min at 1200 rpm. After centrifugation, the supernatant is removed and the cell pellet re-suspended in 4 ml of DPBS containing calcium and magnesium using a 5 ml pipette to break up the pellet. Cell suspension volume is then corrected to give a cell concentration for the assay of approximately 3 million cells per ml.
Experiments are conducted at r.t. using IonWorks Quattro™ planar array electrophysiology technology (Molecular Devices Corp.) with PatchPlate™ PPC. Stimulation protocols and data acquisition are carried out using a microcomputer (Dell Pentium 4). Planar electrode hole resistances (Rp) are determined by applying a 10 mV voltage step across each well. These measurements are performed before cell addition. After cell addition and seal formation, a seal test is performed by applying a voltage step from −80 mV to −70 mV for 160 ms. Following this, amphotericin-B solution is added to the intracellular face of the electrode to achieve intracellular access. Cells are held at −70 mV. Leak subtraction is conducted in all experiments by applying 50 ms hyperpolarizing (10 mV) prepulses to evoke leak currents followed by a 20 ms period at the holding potential before test pulses.
For hKv3.2 and hKv3.1, assays from the holding potential of −70 mV, a first test pulse at −15 mV was applied for 100 ms and after 100 ms at −70 mV a second pulse at +40 mV was applied for 50 ms. Cells were then maintained for 100 ms at −100 mV and another pulse from […] to +40 mV (duration 50 ms) was applied to clamp later the voltage at −40 mV during 200 ms
The intracellular solution contains the following (in mM): K-gluconate 100, KCl 54, MgCl2 3.2, HEPES 5, adjusted to pH 7.3 with KOH. Amphotericin-B solution is prepared as 50 mg/ml stock solution in DMSO and diluted to a final working concentration of 0.1 mg/ml in intracellular solution.
Compounds of use in the invention (or reference compounds such as N-cyclohexyl-N-[(7,8-dimethyl-2-oxo-1,2-dihydro-3-quinolinyl)methyl]-N′-phenylurea) are dissolved in dimethylsulfoxide (DMSO) at a stock concentration of 10 mM. […] Each dilution (1 μL) is transferred to another compound plate and external solution containing 0.05% pluronic acid (66 μL) is added. 3.5 μL from each plate containing a compound of the invention is added and incubated with the cells during the IonWorks Quattro™ experiment. The final assay dilution is 200 and the final compound concentrations are in the range 50 μM to 50 nM.

[3] = Table 2, Example compounds, some compounds with two data sets (n given in cell)

Row | Structure (SMILES) | Kp [1] | Kp at 0.5 h [1] | Kv3.1 max R % ([2]; Table 2, Example compounds) [%] | EC50 [2, 3] [nM] | EC50 ([2]; Table 3, Reference Examples and corresponding Examples) [nM]
1 | O=c1[nH]c2cccnc2n1-c1cnc(Oc2cccc3c2C2(CC2)CO3)cn1 [Example 8, 3-(5-spiro[2H-benzofuran-3,1′-cyclopropane]-4-yloxypyrazin-2-yl)-1H-imidazo[4,5-b]pyridin-2-one] | < 0.1 | < 0.1 | 204 | 200 | 
2 | O=c1[nH]c2cccnc2n1-c1cnc(Oc2cccc3c2C2(CC2)CO3)nc1 [Example 13, 3-(2-{2H-spiro[1-benzofuran-3,1′-cyclopropane]oxy}pyrimidin-5-yl)-1H,2H,3H-imidazo[4,5-b]pyridin-2-one] | 0.12 | 0.13 | 194 | 200 | 
3 | Cc1ncc2[nH]c(=O)n(-c3ccc(Oc4cccc5c4C4(CC4)CO5)nc3)c2n1 [Example 26, 2-methyl-9-(6-spiro[2H-benzofuran-3,1′-cyclopropane]-4-yloxy-3-pyridyl)-7H-purin-8-one] | < 0.1 | < 0.1 | 135 | 50.1 | 
4 | CC1(C)COc2cccc(Oc3ncc(-n4c(=O)[nH]c5cccnc54)cn3)c21 [Example 33, 3-[2-[(3,3-dimethyl-2H-benzofuran-4-yl)oxy]pyrimidin-5-yl]-1H-imidazo[4,5-b]pyridin-2-one] | 0.65 | 0.63 | 194 | 794 | 631
5 | Cc1ncc2[nH]c(=O)n(-c3ccc(Oc4cccc(OC(F)(F)F)c4)nc3)c2n1 [Example 24, 2-methyl-9-[6-[3-(trifluoromethoxy)phenoxy]-3-pyridyl]-7H-purin-8-one] | 0.29 | 0.33 | 144 | 1000 | 

— patent publication US20240327406A1, “POTASSIUM CHANNEL MODULATORS” (Autifony Therapeutics Limited, priority 2021, published 2024)
